Legend:
Type in all cases: physicochemical
[1] = Competitive suspension equilibration study; details: room temperature and 60° C.
Procedure: A competitive suspension equilibration study was carried out to identify the relative stability of the two crystalline forms of the compound of formula (I) in aqueous and organic solvent systems. Competitive suspension equilibration experiments were conducted in ethyl acetate, 50% methanol/water (v/v) and 50% acetonitrile/water (v/v) at room temperature and 60° C. […] Further crystalline forms of the compound of formula (I) (e.g., the first and second crystalline forms of the compound of formula (I)) were added for conversion material and to act as seeds. Each suspension was allowed to stir for 7 or 14 days, and were analyzed via XRPD to determine which form the solids had converted to.

[2] = Evaporative salt and co-crystal screen (1H NMR, HPLC); details: combined with sodium hydroxide and potassium hydroxide
[3] = Dynamic vapor sorption (DVS), with XRPD on the post-DVS sample; details: for DVS weight increase during exposure to 80% RH: 25° C., humidity ramped 0 to 95% RH, value at 80% RH; for structural change by XRPD after DVS (exposure to high humidity): XRPD on post-DVS sample; for hygroscopicity classification from DVS: based on weight increase up to 80% RH
Procedure: Dynamic vapor sorption (DVS) was carried out using the TA Instruments Q5000 SA. A predefined amount of the sample, 2.0 to 10.0 mg, was placed in a platinum pan. The sample was allowed to equilibrate at 50° C. at 0% RH for a period of 60 minutes. The sample was then equilibrated at 25° C. before ramping the humidity from 0 to 95% RH at 5% increments every hour. A similar ramp profile was used for desorption cycle. XRPD analysis was also performed on post DVS sample.

[4] = Thermal gravimetric analysis (TGA) and DSC: thermal degradation; details: heated at 10° C./minute under nitrogen
Procedure: DSC data was collected on a TA Instruments Q2000 DSC. A predefined amount of the sample, 2.0 to 10.0 mg, was placed in an aluminum pan and heated at 5° C./minute from 25° C. to 220° C. A purge of dry nitrogen at 100 mL/minute was maintained over the sample. The instrument control and data acquisition are acquired using Q Advantage software release version 5.5.23. The data was processed and presented using the TA Universal Analysis 2000 software version 4.5A build 4.5.0.5.
TGA data was collected on a TA Instruments Q5000 TGA. A predefined amount of the sample, 2.0 to 10.0 mg, was placed in an aluminum pan and heated at 10° C./minute from 40° C. to 300° C., or varied as experimentation dictated. A purge of dry nitrogen at 25 mL/minute was maintained over the sample. The instrument control and data acquisition are acquired using Q Advantage software release version 5.5.23. The data was processed and presented using the TA Universal Analysis 2000 software version 4.5A build 4.5.0.5.

[5] = Single solvent slurry screen
Procedure: Magnetic stirrers were added to vials, and the suspensions were allowed to stir at room temperature for 4 days. Solid samples generated were analyzed via XRPD to assess crystallinity and crystal structure.

[6] = Temperature cycled single solvent slurry screen
Procedure: Magnetic stirrers were added to vials, and the suspensions were cycled between 50° C. and 5° C. for three cycles with agitation. Solid samples generated were analyzed via XRPD to assess crystallinity and crystal structure. […] Solid samples were obtained from slurries in all other solvents screened.

[7] = Binary solvent slurry screen; details: room temperature
Procedure: Solvent combinations were selected based on solvent properties, functionality, and miscibility. […] Magnetic stirrers were added to vials, and the suspensions were allowed to stir at room temperature for 5 days.

| Structure (SMILES) | form conversion of mixed first and second crystalline forms (XRPD) ([1]; aqueous solvents (methanol/water 14 days, acetonitrile/water 7 days)) | form conversion of mixed first and second crystalline forms (XRPD) ([1]; ethyl acetate, methanol, acetonitrile, within seven days) | chemical stability in a basic environment (1H NMR, HPLC) [2] | DVS weight increase during exposure to 80% RH [3] | structural change by XRPD after DVS (exposure to high humidity) [3] | hygroscopicity classification from DVS [3] | molecular degradation onset (TGA/DSC) [4] [°C] | molecular degradation temperature (TGA/DSC), degradation from [4] [°C] | solubility in THF ([5]; room temperature slurry) | crystal structure after slurry (XRPD), form stability ([5]; single solvents except THF, stirred at room temperature for 4 days) | crystal structure after slurry (XRPD), form stability ([6]; single solvents except THF, cycled between 50° C. and 5° C. for three cycles) | solubility in THF ([6]; temperature cycled slurry) | crystal structure after slurry (XRPD), form stability ([7]; 50/50 (v/v) solvent mixtures except methanol/THF, 5 days) | solubility in methanol/THF ([7]; 50/50 (v/v)) |
| --- | --- | --- | --- | --- | --- | --- | --- | --- | --- | --- | --- | --- | --- | --- |
| COC[C@H](NC(=O)c1ccn(S(C)(=O)=O)c1)C(=O)Nc1nc(-c2cccc(N3C[C@@H](C)O[C@@H](C)C3)n2)cs1 [compound of formula (I)] | did not result in the conversion of either crystalline form to the other | fully converted to the second crystalline form | molecular degradation was visible | – | – | – | – | – | – | – | – | – | – | – |
| COC[C@H](NC(=O)c1ccn(S(C)(=O)=O)c1)C(=O)Nc1nc(-c2cccc(N3C[C@@H](C)O[C@@H](C)C3)n2)cs1 [first crystalline form of the compound of formula (I)] | – | – | – | 1.4 % (w/w) | no structural changes occurred | slightly hygroscopic | 254.3 | 220 | – | – | – | – | – | – |
| COC[C@H](NC(=O)c1ccn(S(C)(=O)=O)c1)C(=O)Nc1nc(-c2cccc(N3C[C@@H](C)O[C@@H](C)C3)n2)cs1 [second crystalline form of the compound of formula (I)] | – | – | – | 0.04 % (w/w) | no structural changes occurred | non-hygroscopic | – | 240 | extremely high | the same crystal structure | the same crystal structure | extremely high | the same crystal structure | high |

Source: US12606553B2, “Crystalline forms, compositions containing same, and methods of their use” (FOGHORN THERAPEUTICS INC., priority 2021, dated 2026)
